Results on 1 compound are retold here after US6255347A (priority 1997, dated 2001).

Test [1] relates to NIH 3T3 cells. The test can be described thus: Foci formation assay, inhibition of PMA induced neoplastic transformation of NIH 3T3 cells. It is filed as cell-based. The conditions noted are these: PMA 0.02 μg/ml, 2% FBS, 6 weeks.
Test [2] deals with PKCα. Put plainly: PKCα translocation in NIH 3T3 cells (subcellular fractionation, Western blot). It is filed as cell-based. Particulars: for PKCα localization: PMA 0.02 μg/ml, 2% FBS.
Test [3] concerns c-jun expression in NIH 3T3 cells. The conditions noted are these: cited from earlier work.

In the case of `CCCCCCCCCCCCCC(=O)O[C@@H]1[C@@H](C)[C@@]2(O)[C@@H](C=C(CO)C[C@]3(O)C(=O)C(C)=C[C@@H]23)[C@@H]2C(C)(C)[C@]12OC(C)=O` [PMA, phorbol 12-myristate 13-acetate], the “dish area occupied by foci” value in test [1] is “over 50%”. The PKCα localization result is “translocation from cytosol to membrane fractions, but interestingly translocation to the nuclear compartment was absent” in test [2] (2 weeks); “translocation of PKCα to the membrane fraction and some indication of PKCα appearing in the nuclear fraction” in test [2] (30 min); “clear association of PKCα with the nuclear fraction” in test [2] (4 hours); “remained at 18 hours despite its disappearance from the membrane and cytosolic fractions” in test [2] (18 hours); “cytosolic PKCα had been regenerated but membrane and nuclear sites were not” in test [2] (48 hours). Besides, the PKCα translocation entry in test [2] (reduced media FBS plus PMA 0.02 μg/ml, 4 to 18 hours) is “significant translocation of PKCα to both nuclear and microsomal membranes”. Also, in test [3], the c-jun expression entry is recorded as “transiently induces c-jun expression”.
